Source: US11518764B2, “Substituted heteroaryls as inhibitors of the BCL6 BTB domain protein-protein interaction” (Ontario Institute for Cancer Research (OICR), priority 2018, dated 2022)
Read-outs that look alike come from different tables or passages of the source.

How the values were obtained:
BCL6 BTB domain = BCL6 BTB domain (Homo sapiens (Human), UniProt P41182); assay: Surface plasmon resonance (SPR) assay; format: binding; conditions: BCL6 BTB domain captured on SA chip, single cycle kinetics
[1] = tested on: BCL6 reporter construct (3xBCL6-TK-Luc) in SuDHL4 cells; assay: Cell-based luciferase assay; conditions: Homo sapiens, SU-DHL-4, 48 h, read-out: Luciferase-Assay EC50, uM), SuDHL4-3xBCL6-TK-Luc cells, two days, high dose 10 uM
Summary of the method: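 SuDHL4 cells stably carrying a 3×BCL6-site TK-promoter firefly luciferase reporter, seeded at 15,000 cells/well, were dosed over a 10-point range (top 10 uM) and grown two days at 37 °C, 5% CO2. Luminescence then read after adding neolite reagent at room temperature.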

Karpas422 cells = assay: Tumor cell growth inhibition assay; format: cell-based
Summary of the method: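 Karpas422 cells (2,000/well) in Alpha-MEM with 10% FBS dosed across 10 concentrations (top 5 uM) and grown six days at 37° C., 5% CO2. Viability read as ATPlite luminescence.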

[2] = Homo sapiens, KARPAS-422, 144 h, read-out: Tumor Growth Inhibition in Karpas-422 (IC50, uM), Karpas422 cells, six days, ATPlite

SMILES	Kd (BCL6 BTB domain) [nM]	EC50 [1] [µM]	IC50 (Karpas422 cells; [2]) [µM]	IC50 (Karpas422 cells; read-out: Tumor Growth Inhibition in Karpas-422 (IC50), Karpas422 cells, six days, ATPlite) [µM]
COc1cc(-c2cn(CC(=O)Nc3cc(N4CCOC[C@@H]4C)ncc3Cl)c3nc(C)n(C)c(=O)c23)cc(C(N)=O)c1O [Compound I-122]	6	0.119	0.078	–
Cc1nc2c(c(-c3cc(C(N)=O)c(O)c(F)c3F)cn2CC(=O)Nc2cc(N3CCN(C)C[C@@H]3C(C)C)ncc2Cl)c(=O)n1C [Compound I-378]	118	0.944	1.22	–
Cc1nc2c(c(-c3cc(C(N)=O)c(O)c(F)c3F)cn2CC(=O)Nc2cc(N3CCN(C4COC4)C[C@@H]3C)ncc2Cl)c(=O)n1C [Compound I-344]	13.8	0.317	0.701	–
CO[C@H]1CN(c2cc(NC(=O)Cn3cc(-c4cc(Cl)c(O)c(C(N)=O)c4)c4c(=O)n(C)c(C(F)(F)F)nc43)c(Cl)c(F)n2)C[C@H]1F [Compound I-389]	286	2.01	1.46	–
C[C@H]1COCCN1c1cc(NC(=O)Cn2cc(-c3cc(Cl)c(O)c(C(N)=O)c3)c3c(=O)n(C)cnc32)c(F)cn1 [Compound I-241]	19.5	0.483	0.281	–
CO[C@@H]1CN(c2cc(NC(=O)Cn3cc(-c4cc(Cl)c(O)c(C(N)=O)c4)c4c(=O)n(C)c(C(F)(F)F)nc43)c(Cl)c(F)n2)C[C@@H]1F [Compound I-388]	528	1.51	0.394	–
Cc1ccc(CN2CCN(c3cc(NC(=O)Cn4cc(-c5cc(C(N)=O)c(O)c(F)c5F)c5c(=O)n(C)cnc54)c(Cl)cn3)[C@@H](C)C2)s1 [Compound I-406]	574	3.06	4.32	–
Cc1nc2c(c(-c3cc(C(N)=O)c(O)c(F)c3F)cn2CC(=O)Nc2cc(N3CCN(C(C)C)C[C@@H]3C)ncc2Cl)c(=O)n1C [Compound I-380]	56	0.59	0.478	–
Cn1cnc2c(c(-c3cc(Cl)c(O)c(C(N)=O)c3)cn2CC(=O)Nc2cn3ccnc3cc2Cl)c1=O [Compound I-173]	200	44.6	5.72	–
C[C@H]1CNCCN1c1cc(NC(=O)Cn2cc(-c3cc(Cl)c(O)c(C(N)=O)c3)c3c(=O)n(C)cnc32)c(Cl)cn1 [Compound I-342]	11.3	0.312	0.27	–
C[C@H]1CN(C2COC2)CCN1c1cc(NC(=O)Cn2cc(-c3cc(C(N)=O)c(O)c(F)c3F)c3c(=O)n(C)cnc32)c(Cl)c(F)n1 [Compound I-437]	11.3	0.231	0.124	–
Cc1nc2c(c(-c3cc(C(N)=O)c(O)c(F)c3F)cn2CC(=O)Nc2cc(N3CCN(C4COC4)C[C@@H]3C)nc(F)c2Cl)c(=O)n1C [Compound I-429]	10.9	0.162	0.154	–
Cn1cnc2c(c(-c3cc(C(N)=O)c(O)c(F)c3F)cn2CC(=O)Nc2cc(N3CCOCC3)c(F)cc2Cl)c1=O [Compound I-227]	420	2.5	2.16	–
CC(C)N1CCN(c2cc(NC(=O)Cn3cc(-c4cc(Cl)c(O)c(C(N)=O)c4)c4c(=O)n(C)cnc43)c(Cl)cn2)[C@@H](C)C1 [Compound I-271]	16	0.208	0.22	–
C[C@H]1COCCN1c1cc(NC(=O)Cn2cc(-c3cc(Cl)c(O)c(C(N)=O)c3)c3c(=O)[nH]c(Cl)nc32)c(Cl)cn1 [Compound I-294]	9.95	1.43	1.88	–
C[C@H]1CN(CC2CC2)CCN1c1cc(NC(=O)Cn2cc(-c3cc(F)c(O)c(C(N)=O)c3)c3c(=O)n(C)cnc32)c(Cl)cn1 [Compound I-303]	6.36	0.0493	0.0323	–
Cn1cnc2c(c(-c3cc(Cl)c(O)c(C(N)=O)c3)cn2CC(=O)NC2CCCCC2F)c1=O (stereo not drawn) [Compound I-246]	1320	10	10	–
Cc1c(O)c(C(N)=O)cc(-c2cn(CC(=O)Nc3cc(N4CCOCC4)ncc3Cl)c3ncn(C)c(=O)c23)c1F [Compound I-118]	2000	> 10	2.45	–
Cn1cnc2c(c(-c3cc(Cl)c(O)c(C(N)=O)c3)cn2CC(=O)Nc2cc3c(cc2Cl)OCC(=O)N3CCN2CCOCC2)c1=O [Compound I-214]	31.2	1.35	0.855	–
Cn1cnc2c(c(-c3cc(C(N)=O)c(O)c(F)c3F)cn2CC(=O)Nc2cc(N3CC4CCOC4C3)ncc2Cl)c1=O (stereo not drawn) [Compound I-224]	22.4	2.02	0.651	–

SMILES	Kd (BCL6 BTB domain) [nM]	EC50 [1] [µM]	IC50 (Karpas422 cells; [2]) [µM]	IC50 (Karpas422 cells; read-out: Tumor Growth Inhibition in Karpas-422 (IC50), Karpas422 cells, six days, ATPlite) [µM]
Cn1cnc2c(c(-c3cc(Cl)c(O)c(C(N)=O)c3)cn2CC(=O)NC2CCCCC2)c1=O [Compound I-211]	1210	10	10	–
CO[C@H]1CN(c2cc(NC(=O)Cn3cc(-c4cc(C(N)=O)c(O)c(F)c4F)c4c(=O)n(C)cnc43)c(Cl)c(F)n2)C[C@H]1F [Compound I-441]	22.3	0.324	0.338	–
Cn1cnc2c(c(-c3cc(Cl)c(O)c(C(N)=O)c3)cn2CC(=O)Nc2cc(N3C4CCC3CN(CC(F)(F)F)C4)ncc2Cl)c1=O [Compound I-466]	519	3.81	0.773	–
CN(C)C1CN(c2cc(NC(=O)Cn3cc(-c4cc(F)c(O)c(C(N)=O)c4)c4c(=O)n(C)cnc43)c(Cl)cn2)C1 [Compound I-433]	8.42	0.548	0.201	–
CN1CCOC2(CCN(c3cc(NC(=O)Cn4cc(-c5cc(C(N)=O)c(O)c(F)c5F)c5c(=O)n(C)cnc54)c(Cl)cn3)C2)C1 (stereo not drawn) [Compound I-403]	81.9	5.54	3.32	–
Cn1cnc2c(c(-c3cc(Cl)c(O)c(C(N)=O)c3)cn2CC(=O)Nc2c(Cl)cnc(N3CCOCC3)c2F)c1=O [Compound I-185]	118	3.44	–	2.2
Cn1cnc2c(c(-c3cc(C(N)=O)c(O)c(F)c3F)cn2CC(=O)Nc2cc(N3Cc4ccncc4C3)ncc2Cl)c1=O [Compound I-468]	23.5	0.461	0.417	–
COC[C@H]1COCCN1c1cc(NC(=O)Cn2cc(-c3cc(Cl)c(O)c(C(N)=O)c3)c3c(=O)n(C)cnc32)c(Cl)cn1 [Compound I-151]	10.6	0.168	0.144	–
CN1CCOC2(CCN(c3cc(NC(=O)Cn4cc(-c5cc(Cl)c(O)c(C(N)=O)c5)c5c(=O)n(C)cnc54)c(Cl)cn3)C2)C1 (stereo not drawn) [Compound I-132]	10	0.192	0.067	–
CN(C)C1CN(c2cc(NC(=O)Cn3cc(-c4cc(C(N)=O)c(O)c(F)c4F)c4c(=O)n(C)cnc43)c(Cl)cn2)C1 [Compound I-326]	64.5	2.35	2	–
Cc1nc2c(c(-c3cc(C(N)=O)c(O)c4c3OCO4)cn2CC(=O)Nc2cc(N3CCOC[C@@H]3C)ncc2Cl)c(=O)n1C [Compound I-308]	2.05	0.0368	0.0161	–
C[C@H]1CN(CC(F)F)CCN1c1cc(NC(=O)Cn2cc(-c3cc(C(N)=O)c(O)c(F)c3F)c3c(=O)n(C)cnc32)c(Cl)c(F)n1 [Compound I-469]	35.5	0.141	0.153	–
C[C@H]1CN(Cc2ccco2)CCN1c1cc(NC(=O)Cn2cc(-c3cc(C(N)=O)c(O)c(F)c3F)c3c(=O)n(C)cnc32)c(Cl)cn1 [Compound I-405]	32.6	0.459	0.254	–
CN1CC2CN(c3cc(NC(=O)Cn4cc(-c5cc(Cl)c(O)c(C(N)=O)c5)c5c(=O)n(C)cnc54)c(Cl)cn3)CCN2C1=O (stereo not drawn) [Compound I-238]	12.1	0.588	0.291	–
CO[C@@H]1CN(c2cc(NC(=O)Cn3cc(-c4cc(C(N)=O)c(O)c(F)c4F)c4c(=O)n(C)cnc43)c(Cl)cn2)C[C@@H]1F [Compound I-366]	35.2	0.899	0.978	–
CN1CCCN(c2cc(NC(=O)Cn3cc(-c4cc(F)c(O)c(C(N)=O)c4)c4c(=O)n(C)cnc43)c(Cl)cn2)CC1 [Compound I-289]	16	1.18	0.652	–
Cc1cc(-c2cn(CC(=O)Nc3cc(N4CCOC[C@@H]4C)ncc3Cl)c3ccn(C)c(=O)c23)cc(C(N)=O)c1O [Compound I-139]	3270	8.35	> 10	–
C[C@@H]1CN(C)C[C@H](C)N1c1cc(NC(=O)Cn2cc(-c3cc(C(N)=O)c(O)c(F)c3F)c3c(=O)n(C)cnc32)c(Cl)c(F)n1 [Compound I-229]	16.3	0.102	0.0784	–
C[C@H]1CN(C)CCN1c1cc(NC(=O)Cn2cc(-c3cc(F)c(O)c(C(N)=O)c3)c3c(=O)n(CC#Cc4cnn(C)c4)cnc32)c(Cl)c(F)n1 [Compound I-432, (S)-5-(7-(2-((3-chloro-6-(2,4-dimethylpiperazin-1-yl)-2-fluoropyridin-4-yl)amino)-2-oxoethyl)-3-(3-(1-methyl-1H-pyrazol-4-yl)prop-2-yn-1-yl)-4-oxo-4,7-dihydro-3H-pyrrolo[2,3-d]pyrimidin-5-yl)-3-fluoro-2-hydroxybenzamide]	2.39	0.0347	0.0181	–
CN1C(C)(C)CN(c2cc(NC(=O)Cn3cc(-c4cc(C(N)=O)c(O)c(F)c4F)c4c(=O)n(C)cnc43)c(Cl)cn2)CC1(C)C [Compound I-369]	159	2.2	2.8	–
